How the values were obtained:
Format in all cases: in vivo
[1] = test system: Bemisia tabaci ESP-00; test: Leaf-dip bioassay, 2nd-instar nymphs, multi-resistant strain ESP-00
Description: (§1) Larvale Tauch-Bioassays wurden mit geringfügigen Änderungen gemäß Elbert und Nauen (1996) durchgeführt. Die echten Blätter einer drei Wochen alten Baumwollpflanze wurden alle außer einem entfernt. Das verbleibende Blatt wurde auf eine Größe von ca. 15-20 cm^2 zurechtgeschnitten. Die Pflanzen wurden ohne Verwendung von Clip-Käfigen mit adulten Weißen Fliegen infiziert (ca. 20-30 adulte Tiere pro Blatt für 6-7 h). Die Weißen Fliegen wurden dann entfernt und zum geeigneten Zeitpunkt (gewöhnlich nach 10-12 d wenn die Nymphen im zweiten Stadium vorherrschten) wurden die infizierten Blätter für 5 sec in serielle wässrige Insektizidlösungen (s.o.) getaucht. Die prozentuale Mortalität wurde an Tag 21-23 bei ca. 24 °C gemessen, sobald alle Überlebenden die Puppenstadien durchschritten hatten. Jedes Insektizid wurde mindestens dreifach mit 2- oder 3-fach Bestimmungen pro Konzentration getestet.
(§2) LC50-Werte wurden aus Probit-Regressionen unter Verwendung des Computerprogramms POLO-PC 2 (LeOra Software, Berkeley, USA) berechnet.
(§3) Tabelle 1. Log-Dosis Probit Mortalitätsdaten für verschiedene Klassen von Insektiziden erhalten aus Blatt-Tauch-Bioassays gegen adulte Tiere zweier Bemisia tabaci Stämme, SUD-S und ESP-00, die bekanntermaßen Insektizid-empfindlich (SUD-S) bzw. multiresistent (ESP-00) sind (Stumpf und Nauen, 2003). Mortalität wurde nach 72 h bestimmt, mit Ausnahme von Buprofezin (10-12 d).

[2] = test system: Bemisia tabaci ESP-00; test: Leaf-dip bioassay, adult whiteflies, multi-resistant strain ESP-00; settings: adults; for ESP-00 LC50: multi-resistant strain ESP-00, mortality after 72 h
Source text: (§4) Es wurden Versuche durchgeführt, um die überlegene Blattwirkung von Enaminocarbonylverbindungen gegen adulte Tiere eines Stamms von Bemisia tabaci zu zeigen, der bekanntermaßen resistent ist gegen Neonikotinoid-Insektizide sowie andere Insektizidklassen, einschließlich Insekten-Wachstumsregulatoren (wie Buprofezin) und Antifeedants (Substanzen, die einen Schaderreger vom Fraß abhalten) (wie Pymetrozin).
(§5) Baumwollblattscheiben (30 mm im Durchmesser) wurden für 5 sec in wässrige Lösungen technischer Insektizide, enthaltend 0,2 g/l Triton-X-100 als nicht-ionisches Benetzungsmittel, getaucht. Luftgetrocknete Blattscheiben wurden dann mit der adaxialen Seite nach unten auf ein Agarbett (12 g/l) in einer kleinen Petrischale (40 mm im Durchmesser) gelegt. Adulte Weiße Fliegen wurden mittels eines Vakuum-getriebenen Aspirators aus Aufzuchtkäfigen eingesammelt und 20 adulte Tiere wurden nach kurzer CO2-Narkose auf die Blattscheiben gelegt. Anschließend wurde jede Petrischale mit einem belüfteten Deckel verschlossen und umgedreht aufbewahrt. Nach 72 h wurde die Mortalität der Weißen Fliegen bestimmt. Jedes Insektizid wurde mindestens dreifach mit 2-oder 3-fach Bestimmungen pro Konzentration getestet.
as §2, §3

[3] = test system: Bemisia tabaci SUD-S; test: Leaf-dip bioassay, 2nd-instar nymphs, insecticide-susceptible strain SUD-S; settings: nymphs in 2nd stage, mortality 10-12 d
Description: as §1, with “Die prozentuale Mortalität wurde an Tag 21-23 bei ca. 24 °C gemessen, sobald alle Überlebenden die Puppenstadien durchschritten hatten.” left out
as §2, §3

[4] = test system: Bemisia tabaci SUD-S; test: Leaf-dip bioassay, adult whiteflies, insecticide-susceptible strain SUD-S; settings: adults, mortality after 72 h
Source text: as §4, §5, §2, §3

Row | Structure (SMILES) | Kreuzresistenz von Nymphen im zweiten Stadium des Stamms ESP-00 ([1]; 2nd-stage nymphs, result in words) | ESP-00 LC50 ([1]; nymphs in 2nd stage, multi-resistant strain ESP-00, mortality 10-12 d) | akute Kurzzeiteffekte gegen adulte Tiere von B. tabaci ([2]; strain not specified, result in words) | SUD-S LC50 [3] | ESP-00 LC50 [2] | SUD-S LC50 [4] | Resistenz / Kreuz-resistenz von adulten B. tabaci Tieren des Stamms ESP-00 im Vergleich zu SUD-S ([2]; leaf-dip, result in words)
1 | CC(C)N1C(=O)N(c2ccccc2)CS/C1=N\C(C)(C)C [Buprofezin] | starke Kreuzresistenz | 260 ppm | keine akuten Kurzzeiteffekte | 0.27 ppm | – | – | –
2 | CN/C(=N/CC1CCOC1)N[N+](=O)[O-] (centres unmarked) [Dinotefuran] | – | – | – | – | 9.8 ppm | 0.17 ppm | –
3 | CC1=NNC(=O)N(/N=C/c2cccnc2)C1 [Pymetrozin] | – | – | – | – | 360 ppm | 0.49 ppm | starke Resistenz
4 | CN1COCN(Cc2cnc(Cl)s2)/C1=N\[N+](=O)[O-] [Thiamethoxam] | – | – | – | – | 76 ppm | 1.1 ppm | –
